Test results: patent US10131652B2, “Pyrimidinyloxy benzene derivatives as herbicides” (E. I. DU PONT DE NEMOURS AND COMPANY, priority 2014, dated 2018)

What was measured:
Experiment in all cases: Test D pre-/postemergence plant response
Assay type in all cases: in vivo
[1] = system: johnsongrass (Sorghum halepense); conditions: Postemergence; for Plant response rating, Johnsongrass: scale 0 to 100, 0 no effect, 100 complete control
Summary of the method: (§1)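 Two application timings were run together: preemergence onto seeded loam–sand pots, and postemergence onto 1- to 4-leaf plants (2 to 18 cm) in peat/vermiculite medium with starter nutrients. Formulation was a non-phytotoxic solvent with surfactant. Ratings, 0 to 100, were made visually versus controls after 13 to 15 greenhouse days.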

[2] = system: oilseed rape (Brassica napus); conditions: Postemergence
Summary of the method: as §1

[3] = system: corn (Zea mays); conditions: Postemergence; for Corn plant response rating: scale 0 to 100 (0 no effect, 100 complete control); for Plant response rating, Corn: scale 0 to 100, 0 no effect, 100 complete control
Summary of the method: as §1

[4] = system: lambsquarters (Chenopodium album); conditions: Postemergence; for Plant response rating, Lambsquarters: scale 0 to 100, 0 no effect, 100 complete control
Summary of the method: as §1

[5] = system: winter wheat (Triticum aestivum); conditions: Postemergence; for Plant response rating, Wheat: scale 0 to 100, 0 no effect, 100 complete control
Summary of the method: as §1

[6] = system: Italian ryegrass (Lolium multiflorum); conditions: Postemergence; for Plant response rating, Ryegrass, Italian: scale 0 to 100, 0 no effect, 100 complete control
Summary of the method: as §1

[7] = system: yellow nutsedge (Cyperus esculentus); conditions: Postemergence; for Plant response rating, Nutsedge, Yellow: scale 0 to 100, 0 no effect, 100 complete control
Summary of the method: as §1

[8] = system: giant foxtail (Setaria faberii); conditions: Postemergence; for Foxtail, Giant plant response rating: scale 0 to 100 (0 no effect, 100 complete control); for Plant response rating, Foxtail, Giant: scale 0 to 100, 0 no effect, 100 complete control
Summary of the method: as §1

[9] = system: pigweed (Amaranthus retroflexus); conditions: Postemergence; for Plant response rating, Pigweed: scale 0 to 100, 0 no effect, 100 complete control
Summary of the method: as §1

[10] = system: morningglory (Ipomoea coccinea); conditions: Postemergence; for Plant response rating, Morningglory: scale 0 to 100, 0 no effect, 100 complete control
Summary of the method: as §1

[11] = system: galium (catchweed bedstraw, Galium aparine); conditions: Postemergence; for Plant response rating, Galium: scale 0 to 100, 0 no effect, 100 complete control
Summary of the method: as §1

[12] = system: blackgrass (Alopecurus myosuroides); conditions: Postemergence; for Blackgrass plant response rating: scale 0 to 100 (0 no effect, 100 complete control); for Plant response rating, Blackgrass: scale 0 to 100, 0 no effect, 100 complete control
Summary of the method: as §1

[13] = system: waterhemp (common waterhemp, Amaranthus rudis); conditions: Postemergence; for Plant response rating, Waterhemp: scale 0 to 100, 0 no effect, 100 complete control
Summary of the method: as §1

[14] = system: ragweed (common ragweed, Ambrosia elatior); conditions: Postemergence; for Plant response rating, Ragweed: scale 0 to 100, 0 no effect, 100 complete control
Summary of the method: as §1

[15] = system: barnyardgrass (Echinochloa crus-galli); conditions: Postemergence; for Barnyardgrass plant response rating: scale 0 to 100 (0 no effect, 100 complete control); for Plant response rating, Barnyardgrass: scale 0 to 100, 0 no effect, 100 complete control
Summary of the method: as §1

[16] = system: velvetleaf (Abutilon theophrasti); conditions: Postemergence
Summary of the method: as §1

[17] = system: soybean (Glycine max); conditions: Postemergence; for Plant response rating, Soybean: scale 0 to 100, 0 no effect, 100 complete control
Summary of the method: as §1

[18] = system: large (Lg) crabgrass (Digitaria sanguinalis); conditions: Postemergence; for Crabgrass, Large plant response rating: scale 0 to 100 (0 no effect, 100 complete control); for Plant response rating, Crabgrass, Large: scale 0 to 100, 0 no effect, 100 complete control
Summary of the method: as §1

[19] = 31 g ai/ha, scale 0 to 100 (0 no effect, 100 complete control)
[20] = 62 g ai/ha, scale 0 to 100, 0 no effect, 100 complete control

`FC(F)(Br)c1cc(-c2ccccc2Oc2ncc(Cl)cn2)no1` [Compound 162] was tested, and the “Johnsongrass plant response rating” value [1, 19] was 5, the “Plant response rating, Johnsongrass” value ([1]; 62 g ai/ha) was 10 and the “Plant response rating, Johnsongrass” value ([1]; 125 g ai/ha) was 20. For the same compound, the “Oilseed Rape plant response rating” value [2, 19] was 5, the “Plant response rating, Oilseed Rape” value [2, 20] was 40 and the “Corn plant response rating” value ([3]; 16 g ai/ha) was 5. For the same compound, the “Corn plant response rating” value ([3]; 31 g ai/ha) was 5, the “Plant response rating, Corn” value ([3]; 62 g ai/ha) was 5 and the “Plant response rating, Corn” value ([3]; 125 g ai/ha) was 5. For the same compound, the “Lambsquarters plant response rating” value [4, 19] was 65, the “Plant response rating, Lambsquarters” value ([4]; 62 g ai/ha) was 75 and the “Plant response rating, Lambsquarters” value ([4]; 125 g ai/ha) was 95. The “Wheat plant response rating” value [5, 19] was 0, the “Plant response rating, Wheat” value ([5]; 62 g ai/ha) was 5 and the “Plant response rating, Wheat” value ([5]; 125 g ai/ha) was 5. For the same compound, the “Ryegrass, Italian plant response rating” value [6, 19] was 0, the “Plant response rating, Ryegrass, Italian” value ([6]; 62 g ai/ha) was 5 and the “Plant response rating, Ryegrass, Italian” value ([6]; 125 g ai/ha) was 5. For the same compound, the “Nutsedge, Yellow plant response rating” value [7, 19] was 0, the “Plant response rating, Nutsedge, Yellow” value ([7]; 62 g ai/ha) was 5 and the “Plant response rating, Nutsedge, Yellow” value ([7]; 125 g ai/ha) was 10. For the same compound, the “Foxtail, Giant plant response rating” value ([8]; 16 g ai/ha) was 10, the “Foxtail, Giant plant response rating” value ([8]; 31 g ai/ha) was 10 and the “Plant response rating, Foxtail, Giant” value ([8]; 62 g ai/ha) was 10. The “Plant response rating, Foxtail, Giant” value ([8]; 125 g ai/ha) was 20, the “Pigweed plant response rating” value [9, 19] was 90 and the “Plant response rating, Pigweed” value ([9]; 62 g ai/ha) was 100. The “Plant response rating, Pigweed” value ([9]; 125 g ai/ha) was 100, the “Morningglory plant response rating” value [10, 19] was 65 and the “Plant response rating, Morningglory” value ([10]; 62 g ai/ha) was 75. The “Plant response rating, Morningglory” value ([10]; 125 g ai/ha) was 75, the “Galium plant response rating” value [11, 19] was 60 and the “Plant response rating, Galium” value ([11]; 62 g ai/ha) was 60. For the same compound, the “Plant response rating, Galium” value ([11]; 125 g ai/ha) was 80, the “Blackgrass plant response rating” value ([12]; 16 g ai/ha) was 0 and the “Blackgrass plant response rating” value ([12]; 31 g ai/ha) was 30. The “Plant response rating, Blackgrass” value ([12]; 62 g ai/ha) was 30, the “Plant response rating, Blackgrass” value ([12]; 125 g ai/ha) was 45 and the “Waterhemp plant response rating” value [13, 19] was 98. For the same compound, the “Plant response rating, Waterhemp” value ([13]; 62 g ai/ha) was 100, the “Plant response rating, Waterhemp” value ([13]; 125 g ai/ha) was 100 and the “Ragweed plant response rating” value [14, 19] was 30. The “Plant response rating, Ragweed” value ([14]; 62 g ai/ha) was 40, the “Plant response rating, Ragweed” value ([14]; 125 g ai/ha) was 50 and the “Barnyardgrass plant response rating” value ([15]; 16 g ai/ha) was 5. For the same compound, the “Barnyardgrass plant response rating” value ([15]; 31 g ai/ha) was 10, the “Plant response rating, Barnyardgrass” value ([15]; 62 g ai/ha) was 15 and the “Plant response rating, Barnyardgrass” value ([15]; 125 g ai/ha) was 15. For the same compound, the “Velvetleaf plant response rating” value [16, 19] was 40, the “Plant response rating, Velvetleaf” value [16, 20] was 75 and the “Soybean plant response rating” value [17, 19] was 10. For the same compound, the “Plant response rating, Soybean” value ([17]; 62 g ai/ha) was 40, the “Plant response rating, Soybean” value ([17]; 125 g ai/ha) was 50 and the “Crabgrass, Large plant response rating” value ([18]; 16 g ai/ha) was 5. The “Crabgrass, Large plant response rating” value ([18]; 31 g ai/ha) was 5, the “Plant response rating, Crabgrass, Large” value ([18]; 62 g ai/ha) was 10 and the “Plant response rating, Crabgrass, Large” value ([18]; 125 g ai/ha) was 20.
